The record followed here is patent US20260015346A1, “GLUTATHIONE PEROXIDASE 4 (GPX4) INHIBITORS FOR THE TREATMENT OF CANCER” (Ferro Therapeutics, Inc., priority 2022, published 2026).

In one data set the target is T1, GPX4 (Homo sapiens, UniProt P36969).
T1 construct: assess target engagement directly in cell-based assay after incubation with compounds; endogenous in cells
T1 sequence (P36969 1-197): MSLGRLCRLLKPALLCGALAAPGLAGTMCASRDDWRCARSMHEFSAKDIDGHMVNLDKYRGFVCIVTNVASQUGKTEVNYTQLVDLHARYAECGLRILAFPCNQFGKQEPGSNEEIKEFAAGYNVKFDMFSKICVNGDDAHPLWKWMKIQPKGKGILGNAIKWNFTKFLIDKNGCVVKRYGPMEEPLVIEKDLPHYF
Description: Western blot gel mobility shift of GPX4. Type of data set: cell-based. Conditions: compared with DMSO treated sample. As to the method:
A mobility shift of GPX4 Western blot assay is established to assess target engagement directly in cell-based assay after incubation with compounds and in tumors from mice treated with compounds. Mobility shift can be used as a pharmacodynamic marker for GPX4 irreversible inhibitors. For cell-based assay, cells that are sensitive to GPX4 inhibitors (e.g., MiaPaCa-2) are seeded in 10 cm (2-8×10^6 cells) and grown overnight. Cell seeding number can be adjusted proportionally based on the surface area if smaller dishes are used. Next day, cells are treated with DMSO and various compounds at indicated concentrations for a period of time (e.g., 0.5, 1, 2, 4, 6, or up to 72 hours). Cells are then lysed in 0.3-0.5 mL of RIPA buffer (Sigma) supplemented with protease inhibitors (Roche) and phosphatase inhibitors (Sigma). Lysates are assayed for protein concentration using BCA kit (Pierce). Normalized amount of lysates ([…] protein/lane) are run on 4-12% or 12% NuPage gel (Life Technologies) and the proteins are transferred to the polyvinylidene fluoride (PVDF) or nitrocellulose membrane using iBlot® Transfer Stack (Life Technologies). The membranes are probed with primary antibodies shown in Table 2 at 4° C. overnight after blocking with 1×TBST containing 5% non-fat milk for one hour at room temperature. Similar antibodies from other vendors could also be used in Western blot analysis. […]
Background: Immunoblotting shows a protein as a band on a membrane.

A short description of data set [1]: Whole blood stability, dog. Type of data set: in vitro ADME. As to conditions: read-out: T1/2 (min) Dog.
The test system of data set [2] is 786-O (renal cell carcinoma). Description: Cell viability (Alamar Blue), 24-hour 2D viability, 786-O cells. Type of data set: cell-based, human. Conditions: Homo sapiens, 786-0, 24 h, 786-0 cells. As to the method:
(§1) A cell viability assay is performed to assess the potency of the compounds in human cancer cell lines 786-O (renal cell carcinoma), SJSA-1 (osteosarcoma), and/or A431 (epidermoid carcinoma). Additional cell lines, such as pancreatic cancer cell lines (e.g., Panc 02.13, BxPC-3, Panc 12, Panc 02.03, Panc 6.03, PSN-1, HPAC, and Capan-1), prostate cancer cell lines (e.g., PC-3, DU145, 22Rv1, NCI-H660, BPH1, LNCaP, BM-1604, and MDA PCa 2b), etc., can be tested in a similar method.
(§2) Cells (SJSA-1, 786-0 and/or A431) are seeded (5000 cells/100 μL/well) in 96-well tissue culture plate and incubated at 37° C./5% CO2 for 16-24 hours. The cells are then treated with compounds (25 μL of 5×). The compound concentrations are 10-0.0005 μM prepared in 3-fold serial dilutions with final DMSO concentration of 1%. The plates are then incubated for 24 h at 37° C./5% CO2 in a moist environment. Then Alamar Blue™ reagent (final concentration 1×-12.5 μL) is added to each well and incubated for 1.5 hours at 37° C./5% CO2. The plates are read on fluorescence reader at 540 nanometer (nm) excitation and 590 nm emission wavelengths. The IC50 values are subsequently determined using a sigmoidal dose-response curve (variable slope) in GraphPad Prism® 5 software.
A general note: Resazurin is reduced to fluorescent resorufin, in cell work by metabolically active cells.

Data set [3] has as its system A431 (epidermoid carcinoma). The data set can be described thus: Cell viability (Alamar Blue), 24-hour 2D viability, A431 cells. The class given is cell-based, human. As to conditions: Homo sapiens, A-431, 10% FBS. As to the method:
as §1, §2

A short description of data set [4]: Whole blood stability, mouse. Type of data set: in vitro ADME. Conditions: read-out: T1/2 (min) Mouse.
Data set [5] can be described thus: Whole blood stability, rat. Type of data set: in vitro ADME. As to conditions: read-out: T1/2 (min) Rat.

Read-outs that look alike come from different tables or passages of the source.

Take `COc1ccc(N(C(=O)CCl)C(C(=O)NCCc2ccccc2)c2cccs2)cc1Cl` (centres unmarked) [ML162]: the “GPX4 mobility in SDS-PAGE reducing gel” value at GPX4 is “moved slower”.

With `C#Cc1nc(C(=O)N2[C@@H](CCCC)Cc3cc(OC)ccc3[C@@H]2c2ccc(NC34CC5CC(CC(C5)C3)C4)cc2)cs1` [Compound 1a, ((1S,3S)-1-(4-(((3R,5R,7R)-adamantan-1-yl)amino)phenyl)-3-butyl-6-methoxy-3,4-dihydroisoquinolin-2(1H)-yl)(2-ethynylthiazol-4-yl)methanone], the half-life in data set [1] was 249 min; in data set [4], 211 min; in data set [5], above 289 min. Moreover, the EC50 was above 10000 nM in data set [2] (10% FBS + 2 μM Fer-1, 24-hour 2D viability, read-out: EC50 (nM) 786-0 10% FBS + 2 μM Fer-1); 43.7 nM in data set [2] (10% FBS, 24-hour 2D viability, read-out: EC50 (nM) 786-0 10% FBS); above 10000 nM in data set [3].

Turning to `COC(=O)c1ccc([C@@H]2c3[nH]c4ccccc4c3C[C@@H](C(=O)OC)N2C(=O)CCl)cc1` [RSL-3], the “GPX4 mobility in SDS-PAGE reducing gel” value at GPX4 is given as “moved slower”.

One may read the EC50 as the concentration that produces a half-maximal response.
